In ChEMBL document CHEMBL1140902 (J Med Chem, 2009) one finds IC50 data, which are given here for 40 compounds.

Assay [1] concerns the target T1, Progesterone receptor (Homo sapiens, UniProt P06401).
T1 sequence (P06401 whole entry): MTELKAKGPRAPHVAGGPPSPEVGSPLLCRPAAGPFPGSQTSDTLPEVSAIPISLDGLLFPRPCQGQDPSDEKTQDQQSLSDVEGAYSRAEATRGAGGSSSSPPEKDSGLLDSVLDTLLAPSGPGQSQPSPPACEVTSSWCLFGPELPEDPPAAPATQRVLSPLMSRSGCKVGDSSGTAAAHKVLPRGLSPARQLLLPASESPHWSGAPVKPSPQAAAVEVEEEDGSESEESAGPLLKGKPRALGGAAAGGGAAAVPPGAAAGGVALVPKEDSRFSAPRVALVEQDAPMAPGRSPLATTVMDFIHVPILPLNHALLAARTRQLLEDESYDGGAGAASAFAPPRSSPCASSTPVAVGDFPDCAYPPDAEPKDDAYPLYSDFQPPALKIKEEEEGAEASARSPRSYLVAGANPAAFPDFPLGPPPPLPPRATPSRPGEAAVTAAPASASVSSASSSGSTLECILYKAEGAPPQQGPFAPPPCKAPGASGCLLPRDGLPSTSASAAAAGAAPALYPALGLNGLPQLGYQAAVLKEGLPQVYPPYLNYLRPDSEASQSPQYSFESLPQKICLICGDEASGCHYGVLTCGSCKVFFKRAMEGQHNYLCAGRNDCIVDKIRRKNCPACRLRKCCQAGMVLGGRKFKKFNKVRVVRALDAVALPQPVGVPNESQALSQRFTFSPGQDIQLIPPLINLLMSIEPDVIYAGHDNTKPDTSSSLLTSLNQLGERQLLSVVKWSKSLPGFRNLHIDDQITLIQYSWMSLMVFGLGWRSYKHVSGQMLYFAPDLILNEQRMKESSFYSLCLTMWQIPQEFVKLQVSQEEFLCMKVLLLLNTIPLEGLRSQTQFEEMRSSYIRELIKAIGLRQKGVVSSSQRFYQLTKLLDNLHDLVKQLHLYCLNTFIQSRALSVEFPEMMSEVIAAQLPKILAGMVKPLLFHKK
The assay can be described thus: Antagonist activity at progesterone receptor in human T47D cells assessed as inhibition of progesterone-induced alkaline phosphatase activity after 48 hrs. It counts as functional, cell-based.

The target of assay [2] is T1, Progesterone receptor. The assay can be described thus: Antagonist activity at progesterone receptor in human T47D-C124 cells transfected with luciferase gene linked to MMTV promoter assessed as inhibition of progesterone-induced luciferase transactivation activity after 24 hrs. It counts as functional, cell-based.

As to `CC#C[C@]1(O)CC[C@H]2[C@@H]3CCC4=CC(=O)CCC4=C3[C@@H](c3ccc(OC)cc3)C[C@@]21C`, the IC50 on Progesterone receptor [1] was found to be 0.095 nM. On the same count and under the same terms, with `CC#C[C@]1(O)CC[C@H]2[C@@H]3CCC4=CC(=O)CCC4=C3[C@@H](c3ccc(N(C)CCCCCCCCCCC(=O)O)cc3)C[C@@]21C` the figure was 0.46 nM; with `CC#C[C@]1(O)CC[C@H]2[C@@H]3CCC4=CC(=O)CCC4=C3[C@@H](c3ccc(N(C)CCCCCC(N)=O)cc3)C[C@@]21C`, 0.55 nM.

As to `CC#C[C@]1(O)CC[C@H]2[C@@H]3CCC4=CC(=O)CCC4=C3[C@@H](c3ccc(N(C)CCCOC(=O)CCC(=O)O)cc3)C[C@@]21C`, at Progesterone receptor [1], the IC50 was found to be 2.1 nM. With `CC#C[C@]1(O)CC[C@H]2[C@@H]3CCC4=CC(=O)CCC4=C3[C@@H](c3ccc(N(C)C(=O)CCCC(=O)OC)cc3)C[C@@]21C`, the IC50 at Progesterone receptor [1] worked out at 1.55 nM. Still for that read-out and setting: the same measure for `CC#C[C@]1(O)CC[C@H]2[C@@H]3CCC4=CC(=O)CCC4=C3[C@@H](c3ccc(N(C)C(=O)Nc4ccc(Cl)cc4)cc3)C[C@@]21C`: 0.27 nM; for `CC#C[C@]1(O)CC[C@H]2[C@@H]3CCC4=CC(=O)CCC4=C3[C@@H](c3ccc(N(C)CCCCCCCCCCC(=O)OC)cc3)C[C@@]21C`: 0.63 nM; for `CC#C[C@]1(O)CC[C@H]2[C@@H]3CCC4=CC(=O)CCC4=C3[C@@H](c3ccc(N(C)C(=O)NCCCCCC(=O)OC)cc3)C[C@@]21C`: 2.2 nM. The same measure, in the same setting: the same measure for `CC#C[C@]1(O)CC[C@H]2[C@@H]3CCC4=CC(=O)CCC4=C3[C@@H](c3ccc(N(C)CCCCCCOC(=O)CCC(=O)O)cc3)C[C@@]21C`: 0.25 nM; for `CC#C[C@]1(O)CC[C@H]2[C@@H]3CCC4=CC(=O)CCC4=C3[C@@H](c3ccc(N(C)CCCCCC(=O)O)cc3)C[C@@]21C`: 0.44 nM; for `CC#C[C@]1(O)CC[C@H]2[C@@H]3CCC4=CC(=O)CCC4=C3[C@@H](c3ccc(N(C)C(=O)NCCCC)cc3)C[C@@]21C`: 0.79 nM. Still for that read-out and setting: the same measure for `CC#C[C@]1(O)CC[C@H]2[C@@H]3CCC4=CC(=O)CCC4=C3[C@@H](c3ccc(N(C)CCCCCC=O)cc3)C[C@@]21C`: 0.15 nM; for `CC#C[C@]1(O)CC[C@H]2[C@@H]3CCC4=CC(=O)CCC4=C3[C@@H](c3ccc(N(C)CCC(=O)O)cc3)C[C@@]21C`: 34 nM. Turning to `CC#C[C@]1(O)CC[C@H]2[C@@H]3CCC4=CC(=O)CCC4=C3[C@@H](c3ccc(N(C)C(=O)NCCCCCC(=O)N[C@@H](CC(C)C)C(=O)OC(C)(C)C)cc3)C[C@@]21C`, at Progesterone receptor [1], the IC50 was 1.7 nM. The same measure, in the same setting: the same measure for `CC#C[C@]1(O)CC[C@H]2[C@@H]3CCC4=CC(=O)CCC4=C3[C@@H](c3ccc(N(C)C(=S)NCCCC)cc3)C[C@@]21C`: 0.73 nM; for `CC#C[C@]1(O)CC[C@H]2[C@@H]3CCC4=CC(=O)CCC4=C3[C@@H](c3ccc(N(C)C(=O)CCCCC(=O)OC)cc3)C[C@@]21C`: 1.8 nM. On the same count and under the same terms, the same measure for `CC#C[C@]1(O)CC[C@H]2[C@@H]3CCC4=CC(=O)CCC4=C3[C@@H](c3ccc(OCCCCCCCCCBr)cc3)C[C@@]21C`: 1 nM; for `CC#C[C@]1(O)CC[C@H]2[C@@H]3CCC4=CC(=O)CCC4=C3[C@@H](c3ccc(N(C)CCC(=O)OC)cc3)C[C@@]21C`: 0.16 nM. The same measure, in the same setting: with `CC#C[C@]1(O)CC[C@H]2[C@@H]3CCC4=CC(=O)CCC4=C3[C@@H](c3ccc(N(C)C(=O)CCCCC)cc3)C[C@@]21C` the figure was 0.69 nM. On to `CC#C[C@]1(O)CC[C@H]2[C@@H]3CCC4=CC(=O)CCC4=C3[C@@H](c3ccc(N(C)CCCCCCO)cc3)C[C@@]21C`, for which the figures for the IC50 on Progesterone receptor [1] and on Progesterone receptor [2] were 0.06 nM and 0.071 nM, respectively. As for `CC#C[C@]1(O)CC[C@H]2[C@@H]3CCC4=CC(=O)CCC4=C3[C@@H](c3ccc(N(C)CCCCCCOC(=O)CCC(=O)OC)cc3)C[C@@]21C`, the IC50 on Progesterone receptor [1] was determined as 0.17 nM. As for `CC#C[C@]1(O)CC[C@H]2[C@@H]3CCC4=CC(=O)CCC4=C3[C@@H](c3ccc(N(C)CCCCCCCCC)cc3)C[C@@]21C`, the IC50 at Progesterone receptor [1] was determined as 1.4 nM; at Progesterone receptor [2] it was 0.38 nM. For `CC#C[C@]1(O)CC[C@H]2[C@@H]3CCC4=CC(=O)CCC4=C3[C@@H](c3ccc(N(C)C(=O)NCCCCCC(=O)N[C@@H](CC(C)C)C(=O)O)cc3)C[C@@]21C`, the IC50 on Progesterone receptor [1] worked out at 72 nM. Take `CC#C[C@]1(O)CC[C@H]2[C@@H]3CCC4=CC(=O)CCC4=C3[C@@H](c3ccc(N(C)CCCO)cc3)C[C@@]21C`: the results for the IC50 on Progesterone receptor [1] and on Progesterone receptor [2] were 0.12 nM and 0.105 nM, respectively. On to `CC#C[C@]1(O)CC[C@H]2[C@@H]3CCC4=CC(=O)CCC4=C3[C@@H](c3ccc(O)cc3)C[C@@]21C`, for which the IC50 at Progesterone receptor [1] was 1.3 nM. As for `CC#C[C@]1(O)CC[C@H]2[C@@H]3CCC4=CC(=O)CCC4=C3[C@@H](c3ccc(N(C)CCC)cc3)C[C@@]21C`, the IC50 at Progesterone receptor [1] was 0.27 nM; at Progesterone receptor [2], 0.025 nM. With `CC#C[C@]1(O)CC[C@H]2[C@@H]3CCC4=CC(=O)CCC4=C3[C@@H](c3ccc(N(C)CCCCCC)cc3)C[C@@]21C`, the IC50 on Progesterone receptor [1] is 0.66 nM; at Progesterone receptor [2], 0.18 nM.

Turning to `CC#C[C@]1(O)CC[C@H]2[C@@H]3CCC4=CC(=O)CCC4=C3[C@@H](c3ccc(N(C)CCCCCCCC(=O)OC)cc3)C[C@@]21C`, at Progesterone receptor [1], the IC50 was determined as 0.47 nM.

For the compound `CC#C[C@]1(O)CC[C@H]2[C@@H]3CCC4=CC(=O)CCC4=C3[C@@H](c3ccc(N(C)C(=O)CCCC(=O)O)cc3)C[C@@]21C`, at Progesterone receptor [1], the IC50 was 100 nM. Consider `CC#C[C@]1(O)CC[C@H]2[C@@H]3CCC4=CC(=O)CCC4=C3[C@@H](c3ccc(N(C)C(=O)NCCCCCC(=O)O)cc3)C[C@@]21C`, for which the IC50 at Progesterone receptor [1] was 72 nM.

In the case of `CC#C[C@]1(O)CC[C@H]2[C@@H]3CCC4=CC(=O)CCC4=C3[C@@H](c3ccc(N(C)CCCOCc4ccc(C(N)=O)c(O)c4)cc3)C[C@@]21C`, the IC50 on Progesterone receptor [1] was 0.46 nM.

Consider `CC#C[C@]1(O)CC[C@H]2[C@@H]3CCC4=CC(=O)CCC4=C3[C@@H](c3ccc(N(C)CCCCCC(=O)OC)cc3)C[C@@]21C`, for which the IC50 on Progesterone receptor [1] came out at 0.4 nM. As for `CC#C[C@]1(O)CC[C@H]2[C@@H]3CCC4=CC(=O)CCC4=C3[C@@H](c3ccc(N(C)C(=O)CCCCC(=O)O)cc3)C[C@@]21C`, the IC50 at Progesterone receptor [1] came to 78 nM. For the compound `CC#C[C@]1(O)CC[C@H]2[C@@H]3CCC4=CC(=O)CCC4=C3[C@@H](c3ccc(N(C)CCCCCC(=O)NCCCC)cc3)C[C@@]21C`, the IC50 at Progesterone receptor [1] amounted to 0.9 nM. Same read-out and setting: with `CC#C[C@]1(O)CC[C@H]2[C@@H]3CCC4=CC(=O)CCC4=C3[C@@H](c3ccc(N(C)CCCOC(=O)CCC(=O)OC)cc3)C[C@@]21C` the figure was 1.2 nM. Regarding `CC#C[C@]1(O)CC[C@H]2[C@@H]3CCC4=CC(=O)CCC4=C3[C@@H](c3ccc(N(C)CCCCCC4OCCO4)cc3)C[C@@]21C`, the values for the IC50 on Progesterone receptor [1] and on Progesterone receptor [2] were 0.17 nM and 0.073 nM, respectively. In the case of `CC#C[C@]1(O)CC[C@H]2[C@@H]3CCC4=CC(=O)CCC4=C3[C@@H](c3ccc(N(C)C(=S)Nc4ccc(Cl)cc4)cc3)C[C@@]21C`, the IC50 on Progesterone receptor [1] stood at 0.16 nM. Still for that read-out and setting: with `CC#C[C@]1(O)CC[C@H]2[C@@H]3CCC4=CC(=O)CCC4=C3[C@@H](c3ccc(N(C)CCC(=O)Nc4ccc(C(N)=O)c(O)c4)cc3)C[C@@]21C` the figure was 0.44 nM; with `CC#C[C@]1(O)CC[C@H]2[C@@H]3CCC4=CC(=O)CCC4=C3[C@@H](c3ccc(N(C)CCCCCCCC(=O)O)cc3)C[C@@]21C`, 0.27 nM.

As to `CC#C[C@]1(O)CC[C@H]2[C@@H]3CCC4=CC(=O)CCC4=C3[C@@H](c3ccc(NC)cc3)C[C@@]21C` [DESMETHYLMIFEPRISTONE], the IC50 on Progesterone receptor [1] was 0.17 nM; at Progesterone receptor [2], 0.073 nM.

Broadly, the IC50 is the point on the concentration scale where inhibition reaches its midpoint.
